These results are taken from ChEMBL document CHEMBL1129217, “Synthesis and pharmacology of the 1,2-dimethylheptyl-8-THC isomers: exceptionally potent cannabinoids” (Bioorg Med Chem Lett, 1997).

In general, ED50 refers to the dose at which the effect has come halfway, by size or by number of responders. One may read the Ki as the dissociation constant of the complex between target and ligand, obtained from inhibition or displacement. Read a low Ki as a stronger hold on the target.

Experiment [1] concerns Mus musculus. Briefly: The compound was evaluated in vivo for antinociception (TF) activity in a mouse model. It is filed as functional.
The target of a further experiment is Cannabinoid receptor (Homo sapiens, UniProt P34972+P21554). Briefly: The affinity of compound for the cannabinoid brain receptor was determined by measuring its ability to displace [3H]CP-55940 from its binding site in a membrane preparation. It is filed as cell membranes.
Experiment [2] deals with Mus musculus. Briefly: The compound was evaluated in vivo for hypothermia(as rectal temperature) in a mouse model. Format: functional.
The test system of experiment [3] is Mus musculus. Briefly: The compound was evaluated in vivo for spontaneous activity(SA) in a mouse model. Format: functional.

`CC1=CC[C@@H]2[C@H](C1)c1c(O)cc(C(C)C(C)C3CCCC3)cc1OC2(C)C` (stereo partly specified): the ED50 was 0.1 µmol/kg in the experiment with Mus musculus [1], 0.07 µmol/kg in the experiment with Mus musculus [2] and 0.04 µmol/kg in the experiment on Mus musculus [3]. This compound registered an inhibition constant Ki on Cannabinoid receptor of 0.6 nM.
For the compound `CC1=CC[C@@H]2[C@@H](C1)c1c(O)cc(C(C)C(C)C3CCCC3)cc1OC2(C)C` (stereo partly specified), the values for the ED50 in the experiment on Mus musculus [1], with Mus musculus [2] and in the experiment on Mus musculus [3] were 0.42 µmol/kg, 0.63 µmol/kg and 0.45 µmol/kg, respectively. Also, the Ki on Cannabinoid receptor is given as 0.84 nM.
In the case of `CC1=CC[C@H]2[C@H](C1)c1c(O)cc(C(C)C(C)C3CCCC3)cc1OC2(C)C` (stereo partly specified), the ED50 amounted to 0.18 µmol/kg in the experiment on Mus musculus [1], 0.19 µmol/kg in the experiment on Mus musculus [2] and 0.12 µmol/kg with Mus musculus [3]. Also, the Ki at Cannabinoid receptor is given as 0.81 nM.
Regarding `CCCCCc1cc(O)c2c(c1)OC(C)(C)[C@@H]1CC=C(C)C[C@@H]21` [DELTA-8-TETRAHYDROCANNABINOL], the ED50 in the experiment on Mus musculus [1] was found to be 4.5 µmol/kg; in the experiment on Mus musculus [2], 4.8 µmol/kg; with Mus musculus [3], 2.9 µmol/kg.
On to `CC1=CC[C@H]2[C@@H](C1)c1c(O)cc(C(C)C(C)C3CCCC3)cc1OC2(C)C` (stereo partly specified), for which the ED50 with Mus musculus [1] was 0.03 µmol/kg; in the experiment on Mus musculus [2], 0.07 µmol/kg; in the experiment on Mus musculus [3], 0.03 µmol/kg. Moreover, the Ki at Cannabinoid receptor is recorded as 0.46 nM.
Regarding `CCCCCCC(C)(C)c1cc(O)c2c(c1)OC(C)(C)[C@@H]1CC=C(C)C[C@@H]21`, the ED50 with Mus musculus [1] is 0.14 µmol/kg; in the experiment with Mus musculus [2], 0.15 µmol/kg; in the experiment on Mus musculus [3], 0.27 µmol/kg. At Cannabinoid receptor, this compound registered a Ki of 0.77 nM.
Take `CCCCCCC(C)(C)c1cc(O)c2c(c1)OC(C)(C)[C@@H]1CC=C(CO)C[C@@H]21`: the values for the ED50 in the experiment with Mus musculus [1], in the experiment on Mus musculus [2] and in the experiment with Mus musculus [3] were 0.02 µmol/kg, 0.05 µmol/kg and 0.01 µmol/kg, respectively.
